Data reported in US7534606B2, “Placental stem cell and methods thereof” (National Health Research Institutes, priority 2004, dated 2009).
Where two headings read alike, the source gives them in different places.

Legend:
placental stem cells [1] = format: cell-based
Description: Immunocytochemistry and immunofluorescence and RT-PCR. Cultured cells were fixed with 4% paraformaldehyde for 5 minutes at room temperature and permeabilized with 0.1% Triton-X 100 for 20 minutes. Slides were then incubated sequentially with primary antibody overnight at 4° C. For immunocytochemistry, primary antibodies against NSE (Sigma) (1:25) was applied, followed by biotinylated anti-rabbit antibody and an avidin-biotin conjugate of hourseradish peroxidase (Vector Laboratories, Burlingame, Calif., USA). For immunofluorescence staining, primary antibodies against NeuN (Chemicon International Inc., Temecula, Calif., USA) (1:100), Nestin (BD Biosciences) (1:100), GFAP (glial fibrillary acidic protein, Chemicon International Inc.) (1:100), MAP2 (microtubule-associated protein 2, Chemicon International Inc.) (1:200), and NG2 (Chemicon International Inc.) (1:50) were used. Cy3 or fluorescein-labeled secondary antibodies were then applied for 1 hour at 37° C., and stained with 4′, 6-diamino-2-phenylindole (DAPI) (KPL Inc. Gaithersburg, Mass., USA) to identify cell nuclei. Cells were visualized by confocal fluorescence microscopy (Zeiss, LSM 510).
For RT-PCR, total RNA was isolated from cultured cells using Purescript (Gentra System, Minneapolis, Minn., USA), and 2 μg of total RNA was used for reverse transcription using Superscript II (Invitrogen, Carlsbad, Calif., USA). The cDNA was synthesized using Taq Platinum (Invitrogen) and 0.025 μg/μl oligo(dT). An equal volume of each sample was used to amplify human genes with 1 μM of each of the following primers: for the human nestin gene 5′-CCC TGA CCA CTC CAG TTT A-3′ and 5′-GAG TCC TGG ATT TCCTTC-3′; for the human Oct-4 gene 5′-GTGAAGCTGGAGAAGGAGAAGCTG-3′ and 5′-CAAGGGCCGCAGCTTACACATG-3′; and for the neurofilament light-chain (NF-L) gene 5′-CCC GAC TCA GTT TCA CC-3′ and 5′-CAG CCT TAG ACG CCT C-3′. Human glyceraldehyde-3-phosphate dehydrogenase (GAPDH) primers (Clontech, Palo Alto, Calif., USA) were used as internal controls for the PCR reactions. The cDNA from each sample was amplified for 30 cycles (1 min at 94° C., 1 min at 65° C., and 1 min at 72° C.). The PCR products were then separated by electrophoresis on 1.5% agarose gels. The sequence of each PCR product was confirmed using automatic sequencing.
Placental stem cells obtained according to Example 1 were plated on 35 mm culture dishes without coating, or if coated, with fibronectin, gelatin, or poly-L-Lysine (Sigma). Cells were cultured in serum-free DMEM-LG (Gibco) at various densities and exposed to either 10 ng/ml basic fibroblastic growth factor (b-FGF)/20 ng/ml epidermal growth factor (EGF) (both from R&D), retinoic acid (RA) (Sigma) at 10^−6M, β-mercaptoethanol/dimethysulfoxide/butylated hydroxyanisole (1×10^−5M βME/2% DMSO/100 μM BHA) (Sigma), or 0.5 mM 1-methyl-3-isobutylxanthine (IBMX, Sigma) for 3 to 6 days. Cells were then harvested for RT-PCR and immunocytochemical analysis as described above.
Differentiation to neural-like cells was quantified as a percentage of the total number of […] stem cells grown under differentiation conditions. Cells were stained for NSE expression and analyzed under an invert microscope. Five non-overlapping low power images were captured from each sample. […] Total cell count was determined by staining with 4′,6-diamidino-2-phenylindole (DAPI), which stains nuclei specifically, or with anti-human nuclei antibody (1:50) (Chemicon International Inc.).

placental stem cells [2] = format: cell-based; details: after 24 hours of treatment; three independent experiments
[3] = test system: human marrow stromal cells; details: Deng et al. 2001; cited from earlier work
[4] = IBMX-treated cultures, immunofluorescence

Row | Compound | morphological changes (cytoplasm retracted, extensions) (placental stem cells [1]; 3 to 6 days in medium, RA 10^−6M, IBMX 0.5 mM, compared with expansion medium) | NSE expression compared with control cells (placental stem cells [1]; 3 to 6 days in medium, immunocytochemical staining) | astrocytes (GFAP) of the total cell count (placental stem cells [1]; [4]) [%] | neurons (MAP2) of the total cell count (placental stem cells [1]; [4]) | oligodendrocytes (NG2) of the total cell count (placental stem cells [1]; [4]) [%] | placental stem cells differentiated (placental stem cells [1]; after 5 days of treatment, three independent experiments) | expression of neural filament light chain (NF-L) by RT-PCR (placental stem cells [1]; after five days of treatment) | dose dependence of induced differentiation (placental stem cells [1]; data not shown) | effect of removal from the culture medium (placental stem cells [1]; data not shown) | time to first morphological changes (placental stem cells [1]; in a portion of placental stem cells) [hours] | placental stem cells differentiated (placental stem cells [2]) [%] | expression of GFAP [3] | expression of NSE [3] | differentiation into neural-like cells (placental stem cells [1]; after 6 days of incubation, RA 10^−6M, IBMX 0.5 mM, retracted cell bodies and positive NSE staining, % of total cells)
1 | CC(C)Cn1c(=O)n(C)c(=O)c2[nH]cnc21 [IBMX, 1-methyl-3-isobutylxanthine] | morphological changes | higher levels of NSE | ~1 | approximately 16% | ~17 | more than 40% | detected | dose-dependent effect | reversion of the cells to their original phenotype | 2 | 7 | no expression of GFAP | increased expression of NSE | –
2 | CC1=C(/C=C/C(C)=C/C=C/C(C)=C/C(=O)O)C(C)(C)CCC1 [RA, retinoic acid] | – | – | – | – | – | – | – | – | – | – | – | – | – | about 10%
